Assay results taken from US8263757B2, “Promiscuous HER-2/Neu CD4 T cell epitopes” (Dendreon Corporation, priority 2006, dated 2012).

Tests used:
[1] = test system: T cell clone HER500.23c21; experiment: Epitope mapping of clone HER500.23c21 with individual HER500 15-mer peptides and autologous EBV-LcL (IFNγ ELISA, IL-2 by HT-2 proliferation); format: cell-based, human; conditions: each peptide 1 ug/ml; autologous EBV LCL cells as antigen presenting cells
Description: FIG. 2. T cell clone HER500.23.21 is specific for Peptide #63 (HERp270-284). The HER-2/neu epitope was mapped for clone HER500.23.21 and specificity was determined using autologous EBV-LcLs and each individual HER500 peptide #1-125 (15 amino acids in length). The assay was set up in 96 well round bottom plates with autologous EBV-LcLs at 2×10^5 cells/well and the T cell clone HER500.23.21 added at 1×10^5 cells/well. Each peptide was used at a final concentration of 1 ug/mL. The assay was incubated at 37° C. with 5% CO2 for 48 hours at which time supernatant was removed to test for cytokine production. (A) IFNγ production by clone HER500.23.21 was measured using ELISA, calculated pg/mL is shown for each HER500 peptide. (B) IL-2 production was measured using HT-2 cell proliferation.
Identification and Characterization of HER-2/neu specific T cell clones. […]
Cytokine Production. […] IL-2 production was measured using the IL-2 dependent line HT-2 (ATCC). […] TdR was added for the final 6 hours of the assay and plates were harvested to glass fiber filter mats and DNA incorporation of the radioisotope, or proliferative response, was determined by counts per minute using a liquid scintillation counter (PerkinElmer Life and Analytical Sciences, Inc. Boston, Mass.). IFNγ production was measured using anti-human IFNγ antibody pairs for ELISA (BD Pharmingen, San Diego, Calif.). […]

[2] = test system: T cell clone HER500.23c21; experiment: HLA-DR promiscuity: HERp270-284 presented by EBV-LcL lines homozygous for HLA-DRB1* alleles to HER500.23c21 (IFNγ ELISA); format: cell-based, human
Description: FIG. 4. HERp270-284 is a promiscuous MHC Class II HER-2/Neu epitope. (A) EBV-LcL lines homozygous for various HLA-DR alleles were tested for their ability to present HERp270-284 to clone HER500.23c21. Antigen-specific IFNγ production by HER500.23c21 was above the upper detection limit of the IFNγ ELISA (4000 pg/mL) with all EBV-LcL lines. […] The assay was set up in 96 well round bottom plates in cRPMI+10% FBS with 2×10^5 EBV-LcL/well and 1×10^5 HER500.23c21 cells/well. Peptides were used at a final concentration of 1 μg/mL. The assay was incubated for 48 hours at 37° C. with 5% CO2. Supernatants were harvested, frozen at −20° C. and then analyzed for IFNγ by ELISA. Results are shown for one representative experiment. (B) HERp270-284 was titrated with each EBV LcL line to determine the sensitivity of HER500.23c21 to different alleles. The assay was set up as in (A) except HERp270-284 concentrations are: 10 ng/mL, 33 ng/mL, 66 ng/mL, 100 ng/mL and 250 ng/mL. […] Results are shown for one representative experiment.
Cytokine Production. To determine cytokine production in the antigen specific stimulation assays, after 48 hours, 200 μL of supernatant was pulled from cultures and tested for both IL-2 and IFNγ production. IL-2 production was measured using the IL-2 dependent line HT-2 (ATCC). HT-2 cells were grown in IMDM with 10% FBS and 100 uM NEAA, 1 mM Sodium Pyruvate, 2 mM L-glutamine, […], 50 U/mL Streptomycin, 20 mM HEPES and 20 uM 2-Mercaptoethanol (cIMDM+10% FBS) and fed twice a week with 20 ng/mL rIL-2. For the assay, 4 days after HT-2 cells were split, cells were washed with IMDM+10% FBS to remove all rIL-2, and cells were added to 96 well round bottom plates at 1×10^4 cells/well in cIMDM+10% FBS. Supernatants from antigen specific stimulation were added to wells and plates were incubated 24-30 hours at 37° C. The following day 1 μCi of ^3[H] TdR was added for the final 6 hours of the assay and plates were harvested to glass fiber filter mats and DNA incorporation of the radioisotope, or proliferative response, was determined by counts per minute using a liquid scintillation counter (PerkinElmer Life and Analytical Sciences, Inc. Boston, Mass.). IFNγ production was measured using anti-human IFNγ antibody pairs for ELISA (BD Pharmingen, San Diego, Calif.). Briefly, Immulon 4 plates (Thermo Labsystems/VWR, Brisbane, Calif.) were coated overnight with purified anti-human IFNγ antibody (NIB42) at 3 μg/mL. The next day coating antibody was discarded and 4% Bovine Serum Albumin (BSA) (Sigma, St. Louis, Mo.) in PBS (Invitrogen) was added to wells and plates were incubated for 2 hours at 37° C. Plates were washed with PBS+0.05% Tween 20 and 100 μL of supernatant samples from the antigen specific stimulation was added to wells and incubated at room temperature for 1.25-2 hours. Plates were washed and biotinylated anti-human IFNγ antibody (4S.B3) was diluted in 1% BSA in PBS (1 μg/mL) and added to plates for 1 hour at room temperature. After washing plates, Strep-Avidin HRP (BD Pharmingen) was diluted 1:1000 in PBST and added to wells for 30 minutes at room temperature. Finally, plates were washed and Sigma® Fast OPD was added for 15 minutes in the dark. 2M HCl was added to stop the reaction and plates were read for absorbance at 492 nm on a spectrophotometer.
HLA-DR Restriction and Promiscuity. To determine HLA-DR restriction of the T cell epitope HERp270-284, anti-HLA-DR mAb L243, HLA-DQ mAb 1a3 or HLA-DP mAb B7/21 (20-1.25 μg/mL) were cultured with T cell clone HER.23c21, peptide HERp270-284 and autologous EBV-LcL in cRPMI+10% FBS media. Supernatants were harvested after 48 hours and tested for IL-2 and IFNγ production. HERp270-284 was also tested for HLA-DR promiscuity using EBV-LcL lines purchased from the European Collection of Cell Cultures originating from the 12th International Histocompatibility Workshop (IHW) held in Strasbourg, France. […]

## ALVTYNTDTFESMPN (HER-2/Neu peptide 270-284, HER500 peptide #63, HERp270-284, HER-2/Neu epitope 270-284, residues 3-17 of SEQ ID NO1) [Peptide 63]
[1]
  response of HER500.23c21 measured by IFNγ or IL2 production: responded to only one individual peptide
[2]; 1 ug/ml peptide
  T cell response induced, regardless of the EBV-LCL line used: maximal T cell response
[2]; all HERp270-284 concentrations above 250 ng/mL, each EBV LcL line
  IFNγ production by HER500.23c21 (ELISA), peptide titration: > 4000 pg/mL
[2]; allele DRB1*0401
  lowest peptide concentration able to stimulate Her500.23c21: 10 ng/mL
[2]; allele DRB1*1103
  peptide concentration below which allele was unable to stimulate Her500.23c21: ≥ 250 ng/mL
[2]; panel of 25 EBV LcL lines homozygous for different HLA-DRB1* alleles, 13 DR serological families
  number of HLA-DRB1* alleles for which the epitope is promiscuous (presented to HER500.23c21): at least 25
[2]; peptide 1 μg/mL, all EBV-LcL lines, 48 hours, upper detection limit 4000 pg/mL
  Antigen-specific IFNγ production by HER500.23c21 (ELISA): > 4000 pg/mL
